The values below come from ChEMBL document CHEMBL3853312, “Blocking Blood Flow to Solid Tumors by Destabilizing Tubulin: An Approach to Targeting Tumor Growth” (J Med Chem, 2016).

Holding throughout (assay type): ADME, organism-based
The nature of data set [1]: Drug excretion in iv dosed human urine assessed as unchanged compound administered as 30 mins infusion after 24 hrs by LC-MS/MS analysis. The note with it: read-out: Drug excretion.
The nature of data set [2]: Tmax in human at 250 mg, po qd regimen measured on day 7 post dose by LC-MS analysis. The note with it: in vivo.
Data set [3] is described as follows: Apparent half life in human at 11.5 to 42 mg/m'-2, iv dosed as 30 mins infusion by LC-MS/MS analysis. To be noted: in vivo, read-out: t1/2(app).

Each structure is given as a SMILES string. Bounds are passed on as bounds.

Turning to `COc1cc(C(=O)c2ccc(-c3csc(NC(=O)[C@@H](N)C(C)C)n3)cc2-n2cncn2)cc(OC)c1OC`, the dose excreted at 24 h in data set [1] was less than 1%.

For `COc1ccc(S(=O)(=O)Nc2cccnc2Nc2ccc(O)cc2)cc1` [ABT-751], the Tmax in data set [2] was 120 min.

With `COc1ccc(/C=C\c2cc(OC)c(OC)c(OC)c2)cc1NC(=O)[C@@H](N)CO` [OMBRABULIN], the half-life in data set [3] is 12 min.

By Tmax is commonly meant the time from dosing to the highest level.
